Measurements reported in US12440469B2, “P-gp inducers as protectors against chemotherapy-induced side effects, such as peripheral neuropathy (CIPN) and hair loss” (Syddansk Universitet, priority 2019, dated 2025).

Columns and labels:
[1] = test system: paclitaxel treated patients with breast or ovarian cancer; experiment: Paclitaxel dose modification due to peripheral neuropathy in patients using P-gp inhibitors (logistic regression); format: in vivo, human; details: for Multivariate analysis Odds-ratio of paclitaxel dose modification due to peripheral neuropathy: adjusted for age, body surface, tumor type, cancer stage, treatment schedule and previous chemotherapy; for Univariate analysis Odds-ratio of paclitaxel dose modification due to peripheral neuropathy: concomitant use with paclitaxel, 503 patients database; for increased risk of dose modification due to peripheral neuropathy: paclitaxel-treated patients, text summary of the multivariate analysis
From the text: Data were log-transformed to ensure normality of data.
To assess if P-gp inhibition leads to increased risk of peripheral neuropathy we used a previously described database of 503 paclitaxel treated patients with breast or ovarian cancer (Sanchez-Barroso L et al. The Oncologist. 2018 Nov. 23). […] P-gp inhibitors were selected based on two literature reviews (see comments under table 1). From these reviews, we identified drugs listed as P-gp inhibitors (drugs classified as inhibitor in either review), and, within these, strong P-gp inhibitors (drugs classified as inhibitor in both reviews).
The association from univariate and multivariate analysis between paclitaxel dose modification due to peripheral neuropathy and concomitant P-gp inhibitor use is shown in Table 1.

[2] = test system: iPSC-derived sensory neurons; experiment: Vincristine neurotoxicity in iPSC-derived sensory neurons with or without MK-571 or rifampicin; format: cell-based, human
From the text: Sensory neurons were generated from human induced pluripotent stem cells (iPSCs) by implementing the well-established protocol by Chambers et. al. (Nat Biotech 2012). The neuronal differentiation was initiated when iPSCs achieved 70-80% confluency using KSR medium, which contained 82% KnockOut DMEM (Gibco, 10829-018) and 15% KnockOut Serum Replacement (KSR, ThermoFisher, 10828-028), 1% GlutaMAX-I (Gibco, 35050-038), 1% mini-mum essential medium non-essential amino acids (MEM-NEAA, Gibco, 11140-035), 1% P/S and 0.055 mM β-mercaptoethanol (Gibco, 21985023).
On days 0-5, SMAD signaling was inhibited by adding 0.1 μM LDN-193189 (Selleck, S7507) and 10 μM SB-431542 (Selleck, S1067) to the medium. Medium was changed daily, and N2 medium was added with 25% increments every other day starting on day 4 (100% N2 on day 10). N2 medium consists of 97% Neurobasal medium (Gibco, 21103-049) with 1% N2 Supplement (Gibco, 17502-048), 1% B27 Supplement (Gibco, 17504-044) and 1% P/S. On days 2-10, nociceptor induction was initiated with the addition of the three inhibitors, 3 μM CHIR99021 (Selleck, S1263), 10 μM SU5402 (Selleck, S7667) and 10 μM DAPT (Selleck, S2215).
For long-term cultivation starting on day 12, cells were washed with PBS÷ and incubated with Accutase for 30 min to obtain a single-cell suspension. After incubation, the culture plates were gently rocked and cellular clumps were mechanically dissociated by pipetting up and down. The cells were filtered through a 40 μm nylon cell strainer (Corning, 431750) and centrifuged (800 rpm, 5 min, RT). Following resuspension of the pellet, iPSC-SNs were seeded as single cells on PLO/LAM/FN-coated culture plates at a density of 150,000 viable cells/cm^2. […]
Cells were treated with vincristine from 0.001-1 μM for 24 hours and immunolabeled with peripherin antibody. Quantification of network was done using ImageJ and MIPAR. […]

[3] = test system: ATF-3; experiment: ATF-3 expression in iPSC-derived sensory neurons (RT-qPCR); format: cell-based, human; details: paclitaxel, dose-dependent
Method: (§1) Induced pluripotent stem cells were differentiated to sensory neurons for 35-40 days as described above. Rifampicin was added 48 hours ahead of paclitaxel to increase expression of efflux transporters. Expression levels was determined using real-time qualitative polymerase chain reaction (RT-qPCR) for TRPV1 and ATF-3.

[4] = test system: TRPV1; experiment: TRPV1 expression in iPSC-derived sensory neurons (RT-qPCR); format: cell-based, human; details: paclitaxel, dose-dependent
Method: as §1

[5] = molecular target: T1, P-gp (Homo sapiens, UniProt P08183); experiment: Intracellular paclitaxel concentration (LC-MS/MS) in differentiated SH-SY5Y cells under P-gp inhibition; format: cell-based; details: 10 μM paclitaxel, 1 hour, P-gp inhibition by 4 μM valspodar, p<0.001
T1 construct: indicated expression of the efflux transporters P-gp and MRP1 in both SH-SY5Y cells and human dorsal root ganglion; endogenous in cells; host or cells: differentiated SH-SY5Y cells (neurons)
Method: LC-MS/MS method to determine intracellular paclitaxel concentrations Fully differentiated SH-SY5Y cells were exposed to 1-10 μM paclitaxel for 1 hour with and without 1 hour pre-incubation with efflux transporter inhibitors. After this, media was aspirated and cells were lysed using radio immunoprecipitation assay (RIPA) buffer with 4% protease inhibitor for 10 minutes on ice. Cells were collected using a cell scraper, vortexed and sonicated (1 sec×2), centrifuged and the supernatant was stored at −80° C. until LC-MS/MS analysis. […] The LC-MS/MS system consisted of an Ultimate 3000 UHPLC system connected to a TSQ Quantiva Triple Quadropole Mass Spectrometer with heated electrospray ionization (H-ESI) (Thermo Scientific, San Jose, CA). […] Paclitaxel was quantified at the transition from (m/z) 876.18-308.00, and with (m/z) 876.18-591.11 and (m/z) 876.19-531.11 as qualifier traces. […] The limit of detection (LOD) for the method was 1 ng/mL and limit of quantification (LOQ) was 10 ng/mL. Finally, paclitaxel concentrations were adjusted for protein concentration in each well as assessed using a Pierce BCA protein assay kit.
Cells were treated with paclitaxel with and without concomitant P-gp inhibition by valspodar and intracellular levels were measured 1 hour after treatment.

[6] = test system: SH-SY5Y-derived neurons
Method: (§2) SH-SY5Y cells (94030304, Sigma-Aldrich) were kept in DMEM/F:12 (11320074, ThermoFisher) with 15% heat-inactivated fetal bovine serum (hiFBS, F9665 Sigma-Aldrich), 1% penicillin/streptomycin (p/s) and 2 mM glutamine. Cells were split 1:10-1:20 using 0.05% trypsin-EDTA (10779413, Fisher Scientific) at 70-80% confluence.
(§3) Paclitaxel (T7402, Sigma-Aldrich) was diluted serially in DMSO (D2650, Sigma-Aldrich) and these stock solutions diluted 1:500 to ensure 0.2% DMSO in all samples. […] Valspodar (SML0572, Sigma-Aldrich) were used at a final concentration of 4 μM. Antibody against TUBB3 (MA1-118, ThermoFisher Scientific) was used at 1:1000.
(§4) Briefly, SH-SY5Y cells below passage 15 were seeded at 5-6×10^3 cells/cm^2 in uncoated 6-well plates (day 0 (D0)) and left overnight in growth media. The next day (D1) differentiation was initiated using DMEM/F:12 media with 2.5% hiFBS, 1% p/s, 2 mM glutamine and 10 μM retinoic acid (RA, R2625 Sigma-Aldrich) and media was replaced at D3 and D5. On D7 cells were split 1:1 using 0.05% trypsin-EDTA to uncoated dishes and on D8 hiFBS content was reduced to 1%. On D10 the cells were split 1:1 to extracellular matrix-coated dishes (E0282, Sigma-Aldrich). On D11 media was replaced with the final differentiation media containing neurobasal media (21103049, ThermoFisher) with 1×B27 supplement (17504044, ThermoFisher), 20 mM KCl (10697623, Fisher Scientific), 1% p/s, 1× Glutamax, 50 ng/ml brain-derived neurotrophic factor (BDNF, CST-3897S, Peprotech), 2 mM dibutyryl cyclic AMP (db-cAMP, D0627 Sigma-Aldrich) and 10 μM RA. Media was replaced on D14 and D17 and cells were tested and confirmed as fully differentiated on D18 and used for downstream applications as outlined below.
(§5) Both differentiated and undifferentiated SH-SY5Y cells were fixed using 4% paraformaldehyde. Cells were permeabilized using 0.25% Triton X-100 and unspecific binding was blocked using bovine serum albumin (BSA). Primary antibodies were incubated overnight at 4° C. and secondary antibodies were incubated for one hour at room temperature. Nuclei were stained using 1.5 μM DAPI for 5 minutes. Imaging was performed using a Leica DMI4000B microscope. Neurite morphology was assessed using the ImageJ modules CellCounter and Simple Neurite Tracer. To determine number of neurites per cell, CellCounter was used to count the number of cells with 0, 1, 2 . . . n neurites. Neurite length was determined using Simple Neurite Tracer. For both endpoints, at least five images of each condition from three separate differentiations were used. ImageJ analysis was blinded to the person assessing length and number of neurites to ensure no bias. […]

[7] = test system: sensory neurons derived from induced pluripotent stem cells; experiment: Paclitaxel damage in iPSC-derived sensory neurons, peripherin immunolabelling; format: cell-based, human; details: paclitaxel 24 hours
Method: Cells were treated with paclitaxel for 24 hours and immunolabeled using an antibody for peripherin.
Cells were pretreated for 48 hours with 25 μM rifampicin prior to addition of paclitaxel treatment.

[8] = test system: SH-SY5Y-derived neurons; experiment: Neurite number and length in differentiated SH-SY5Y cells after paclitaxel with or without valspodar
Method: as §2, §3, §4, §5

[9] = vincristine 0.001-1 μM, 24 hours

T1 sequence (P08183 whole entry): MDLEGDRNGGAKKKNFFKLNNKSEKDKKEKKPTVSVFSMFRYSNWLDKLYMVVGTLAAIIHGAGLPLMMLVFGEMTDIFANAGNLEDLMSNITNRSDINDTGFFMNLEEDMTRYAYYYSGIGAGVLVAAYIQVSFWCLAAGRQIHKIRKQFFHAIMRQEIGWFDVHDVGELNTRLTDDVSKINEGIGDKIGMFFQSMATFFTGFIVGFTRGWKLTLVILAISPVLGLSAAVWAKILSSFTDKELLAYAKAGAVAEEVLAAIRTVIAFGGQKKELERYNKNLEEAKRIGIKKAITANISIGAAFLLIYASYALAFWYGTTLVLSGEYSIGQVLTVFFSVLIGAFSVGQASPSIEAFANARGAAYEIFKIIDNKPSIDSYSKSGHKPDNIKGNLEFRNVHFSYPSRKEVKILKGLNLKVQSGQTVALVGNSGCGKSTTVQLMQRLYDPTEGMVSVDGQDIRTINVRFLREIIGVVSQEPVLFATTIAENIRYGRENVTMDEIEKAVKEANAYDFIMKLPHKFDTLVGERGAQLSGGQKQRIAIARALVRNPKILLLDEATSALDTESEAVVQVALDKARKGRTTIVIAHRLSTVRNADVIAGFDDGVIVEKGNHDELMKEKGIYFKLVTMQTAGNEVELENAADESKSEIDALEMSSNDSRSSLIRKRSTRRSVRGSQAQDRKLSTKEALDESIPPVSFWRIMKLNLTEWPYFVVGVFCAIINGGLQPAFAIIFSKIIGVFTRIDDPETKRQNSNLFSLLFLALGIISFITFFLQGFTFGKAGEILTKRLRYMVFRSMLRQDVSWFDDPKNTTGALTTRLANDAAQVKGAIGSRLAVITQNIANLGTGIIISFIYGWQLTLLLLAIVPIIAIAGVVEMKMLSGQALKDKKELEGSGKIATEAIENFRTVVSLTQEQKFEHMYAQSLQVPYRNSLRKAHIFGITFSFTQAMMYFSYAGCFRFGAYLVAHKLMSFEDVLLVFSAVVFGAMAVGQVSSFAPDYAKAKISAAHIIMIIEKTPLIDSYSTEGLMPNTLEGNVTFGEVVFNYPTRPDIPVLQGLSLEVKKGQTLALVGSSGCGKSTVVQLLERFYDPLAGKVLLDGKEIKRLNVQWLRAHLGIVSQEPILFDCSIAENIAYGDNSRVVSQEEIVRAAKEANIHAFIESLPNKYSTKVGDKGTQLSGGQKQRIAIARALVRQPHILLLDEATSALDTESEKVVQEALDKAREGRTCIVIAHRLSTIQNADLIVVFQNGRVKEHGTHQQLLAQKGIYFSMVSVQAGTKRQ

## CC(C)c1c(C(=O)Nc2ccccc2)c(-c2ccccc2)c(-c2ccc(F)cc2)n1CC[C@@H](O)C[C@@H](O)CC(=O)O [Atorvastatin]
[1]
  Multivariate analysis Odds-ratio of paclitaxel dose modification due to peripheral neuropathy: 7.01
  Univariate analysis Odds-ratio of paclitaxel dose modification due to peripheral neuropathy: 9.41
  increased risk of dose modification due to peripheral neuropathy: 7.0 fold

## CN(C)C(=O)CCSC(SCCC(=O)O)c1cccc(/C=C/c2ccc3ccc(Cl)cc3n2)c1 (centres unmarked) [MK-571]
[2]; 4 μM MK-571 one hour ahead of vincristine, low vincristine concentrations
  effect of MRP1 inhibition on vincristine neurotoxicity: substantially increased neurotoxicity

## CC(=O)O[C@H]1C(=O)[C@@]2(C)[C@H]([C@H](OC(=O)c3ccccc3)[C@]3(O)C[C@H](OC(=O)[C@H](O)[C@@H](NC(=O)c4ccccc4)c4ccccc4)C(C)=C1C3(C)C)[C@]1(OC(C)=O)CO[C@@H]1C[C@@H]2O [Paclitaxel]
[3]
  ATF-3 expression: substantially increased expression
[4]
  TRPV1 expression: substantially increased expression
[5]
  increase in intracellular accumulation of paclitaxel on inhibition of P-gp: > 3 fold
[6]
  neurite length: significantly reduced
  number of neurites: significantly reduced
[7]
  damage to sensory neurons: marked damage

## CCC(C)(C)C(=O)O[C@H]1C[C@@H](C)C=C2C=C[C@H](C)[C@H](CC[C@@H]3C[C@@H](O)CC(=O)O3)[C@H]21 [Simvastatin]
[1]
  Multivariate analysis Odds-ratio of paclitaxel dose modification due to peripheral neuropathy: 0.31
  Univariate analysis Odds-ratio of paclitaxel dose modification due to peripheral neuropathy: 0.60
  increased risk of dose modification due to peripheral neuropathy: not at increased risk

## C/C=C/C[C@@H](C)C(=O)[C@H]1C(=O)N[C@@H](C(C)C)C(=O)N(C)CC(=O)N(C)[C@@H](CC(C)C)C(=O)N[C@@H](C(C)C)C(=O)N(C)[C@@H](CC(C)C)C(=O)N[C@@H](C)C(=O)N[C@H](C)C(=O)N(C)[C@@H](CC(C)C)C(=O)N(C)[C@@H](CC(C)C)C(=O)N(C)[C@@H](C(C)C)C(=O)N1C [valspodar]
[8]; 4 μM valspodar alone
  effect on neuronal morphology without paclitaxel present: did not affect
[8]; 4 μM valspodar together with paclitaxel, 24 hours, ANOVA p<0.001
  effect on neuronal toxicity of paclitaxel (number and length of neurites): substantially exacerbated

## CC[C@]1(O)C[C@H]2CN(CCc3c([nH]c4ccccc34)[C@@](C(=O)OC)(c3cc4c(cc3OC)N(C=O)[C@H]3[C@@](O)(C(=O)OC)[C@H](OC(C)=O)[C@]5(CC)C=CCN6CC[C@]43[C@@H]65)C2)C1 [vincristine]
[2]; [9]
  neurite length: shortened in a dose-dependent manner
  number of neurites extending from a cluster of sensory neurons: dose-dependent decrease
